Test results from US10557118B2, “Compositions and methods for prevention or treatment of neoplastic disease in a mammalian subject” (The Government of the USA, as represented by the Secretary, …, priority 2006, dated 2020).

Columns and labels:
[1] = system: RCC reactive SAUJ T-cell clone; assay: ELISA of IFN-gamma production by RCC reactive CTL co-cultured with peptide-pulsed COS7-A11 cells; format: cell-based, human
Protocol: COS7-A11 cells were pulsed with varying concentrations of each peptide then screened for their ability to induce IFN-gamma production by RCC reactive CTL. The 10 mer Pep-A104-K133 (ATFLGSLTWK) (SEQ ID NO: 1) induced dose dependent IFN-gamma production first evident in the 1 nM concentration range consistent with this peptide being the antigenic HLA-A11 restricted antigen recognized by the RCC reactive SAUJ T-cell clone.
Cultured T-cell lines or T cell clones were added to target cells in round-bottom 96-well plates. After 24 hours co culture at 37° C., 50 μL of supernatants was collected to measure IFN-g or GM-CSF secretion by ELISA (ENDOGEN, Woburn, Mass.) in duplicate assays. The concentration of reagents and the ELISA procedure recommended by ENDOGEN was followed without deviation. Absorbance was detected at 450 nm using an ELISA reader (VICTOR3 Multilabel counter; Perkin Elmer, Wellesley, Mass.) and data were calculated based on the standard curve generated from commercial recombinant human IFN-g or GM-CSF standards (ENDOGEN).
A total of 8 peptides (three 9-mers and five 10-mers) from the common sequence of CT-RCC 8 and CT-RCC 9 were synthesized and purchased from Genemed Synthesis, Inc. The identity and purity of each of the peptides were confirmed by mass spectrometer and high-performance liquid chromatography analysis. […]

HLA A-11 = assay: Binding of epitope to HLA A-11; parameters: species or system human; conditions: compared with the other epitopes

## ATFLGSLTWK [Pep-A104-K133, HLA-A11-restricted 10-mer peptide from the common region of CT-RCC 8 and CT-RCC 9]
[1]; COS7-A11 cells pulsed with varying peptide concentrations (0.1 to 10000 nM), SAUJ-CTL clone BZ-4
  concentration range at which dose dependent IFN-gamma production is first evident: ~1 nM
[1]; compared with the other epitopes
  level of IFN-γ secretion by human T cells: highest level of IFN-γ secretion
HLA A-11
  level of binding the HLA A-11: highest level of binding
